# Calls of active or inactive are those of the source. No rule for the calls is given here.
# Test system: GENE-TOX genotoxicity assays, various organisms and cells
# Experiment: GENE-TOX mutagenicity studies
# Conditions: for call: Assay Type: In vivo carcinogenicity studies
# [1] = Species/Cell Type: Drosophila melanogaster, Assay Type: Sex-linked recessive lethal gene mutation, Assay Code: SRL+, Evaluation Type: Evaluation A (Pre-1980)
# [2] = Species/Cell Type: Human lymphocytes, Assay Type: Sister-chromatid exchange (SCE) in vitro, Assay Code: SCLT, Evaluation Type: Evaluation B (Post-1980)
# [3] = Species/Cell Type: Human, Assay Type: Sister-chromatid exchange (SCE) in vitro, Assay Code: SC1T, Evaluation Type: Evaluation B (Post-1980)
# [4] = Species/Cell Type: Mammalian polychromatic erythrocytes, Assay Type: Micronucleus test, chromosome aberrations, Assay Code: MNT+, Evaluation Type: Evaluation B (Post-1980)
# [5] = Species/Cell Type: Saccharomyces cerevisiae, Assay Type: Mitotic recombination or gene conversion, Assay Code: YEC-, Evaluation Type: Evaluation A (Pre-1980)
# [6] = Species/Cell Type: Salmonella typhimurium (one or more of the five standard strains: TA98, TA100, TA1535, TA1537, and TA1538), Assay Type: Histidine reverse gene mutation, Ames assay, Assay Code: SALT, Evaluation Type: Evaluation A (Pre-1980)
# [7] = Species/Cell Type: Salmonella typhimurium (one or more of the five standard strains: TA98, TA100, TA1535, TA1537, and TA1538), Assay Type: Histidine reverse gene mutation, Ames assay, Assay Code: SAL+*, Activation: With metabolic activation, Evaluation Type: Evaluation A (Pre-1980)
# [8] = Species/Cell Type: Nonhuman, Assay Type: Sister-chromatid exchange (SCE) in vitro, Assay Code: SC2+D, Dose Response: With dose response, Evaluation Type: Evaluation B (Post-1980)
# [9] = Species/Cell Type: Mammalian polychromatic erythrocytes, Assay Type: Micronucleus test, chromosome aberrations, Assay Code: MNTT, Evaluation Type: Evaluation A (Pre-1980)
# [10] = Species/Cell Type: Nonhuman, Assay Code: CCG+, Evaluation Type: Evaluation A (Pre-1980)
# [11] = Species/Cell Type: Salmonella typhimurium (one or more of the five standard strains: TA98, TA100, TA1535, TA1537, and TA1538), Assay Type: Histidine reverse gene mutation, Ames assay, Assay Code: SAL+, Evaluation Type: Evaluation A (Pre-1980)
structure (smiles),measurement,setting,value
F,mutagenic call,"Species/Cell Type: Allium cepa, Assay Type: Chromosome aberrations, Assay Code: ALC+D, Dose Response: With dose response, Evaluation Type: Evaluation A (Pre-1980)",active; positive
same,mutagenic call,"Species/Cell Type: Drosophila melanogaster, Assay Type: Aneuploidy, partial sex chromosome loss, chromosome aberrations, Assay Code: DAPT, Evaluation Type: Evaluation A (Pre-1980)",no conclusion
same,mutagenic call,"Species/Cell Type: Drosophila melanogaster, Assay Type: Aneuploidy, sex chromosome gain, chromosome aberrations, Assay Code: DAG-F, Evaluation Type: Evaluation A (Pre-1980)",inactive; negative
same,mutagenic call,"Species/Cell Type: Drosophila melanogaster, Assay Type: Aneuploidy, whole sex chromosome loss, chromosome aberrations, Assay Code: DAC+M, Evaluation Type: Evaluation A (Pre-1980)",active; positive
same,mutagenic call,[1],active; positive
same,mutagenic call,"Species/Cell Type: Drosophila melanogaster, Assay Type: Sex-linked recessive lethal gene mutation, Assay Code: SRLT, Evaluation Type: Evaluation A (Pre-1980)",no conclusion
same,mutagenic call,"Species/Cell Type: Human lymphocytes, Assay Type: Sister-chromatid exchange (SCE) in vitro, Assay Code: SCL+, Evaluation Type: Evaluation B (Post-1980)",active; positive
same,mutagenic call,[2],no conclusion
same,mutagenic call,"Species/Cell Type: Human, Assay Type: Sister-chromatid exchange (SCE) in vitro, Assay Code: SC1+, Evaluation Type: Evaluation B (Post-1980)",active; positive
same,mutagenic call,[3],no conclusion
same,mutagenic call,[4],active; positive
same,mutagenic call,"Species/Cell Type: Neurospora crassa, Assay Type: Aneuploidy, chromosome aberrations, Assay Code: NEN-, Evaluation Type: Evaluation A (Pre-1980)",inactive; negative
same,mutagenic call,"Species/Cell Type: Nonhuman lymphocytes or leukocytes, Assay Type: Chromosome aberrations in vivo, Assay Code: CY%-, Evaluation Type: Evaluation A (Pre-1980)",inactive; negative
same,mutagenic call,"Species/Cell Type: Nonhuman, Assay Type: Sister-chromatid exchange (SCE) in vivo, Assay Code: SC3-, Evaluation Type: Evaluation A (Pre-1980)",inactive; negative
same,mutagenic call,"Species/Cell Type: Nonhuman, Assay Type: Sister-chromatid exchange (SCE) in vivo, Assay Code: SC3T, Evaluation Type: Evaluation B (Post-1980)",no conclusion
same,mutagenic call,[5],inactive; negative
same,mutagenic call,[6],no conclusion
Cc1cc(O)ccc1[N+](=O)[O-],mutagenic call,"Species/Cell Type: Allium cepa, Assay Type: Chromosome aberrations, Assay Code: ALC+, Evaluation Type: Evaluation A (Pre-1980)",active; positive
COc1cc(O)c2c(O)c3c(c4c2c1[C@]1(C4)C(C)=CCCC1(C)C)[C@H](O)[C@@]1(O)CC(=O)C(C(N)=O)=C(O)[C@@]1(O)C3=O,mutagenic call,[7],active; positive
c1nnc(NCNc2nncs2)s1,mutagenic call,"Species/Cell Type: Mammalian polychromatic erythrocytes, Assay Type: Micronucleus test, chromosome aberrations, Assay Code: MNT+U, Dose Response: Unconfirmed positive response, Evaluation Type: Evaluation B (Post-1980)",active; positive
O=Cc1ccc(C(=O)O)cc1,mutagenic call,"Species/Cell Type: Syrian hamster embryo (SA7/SHE) cells, Assay Type: Cell transformation, viral enhanced, Assay Code: CT7+, Evaluation Type: Evaluation A (Pre-1980)",active; positive
Cc1n(C)c([N+](=O)[O-])c[n+]1C,mutagenic call,[6],no conclusion
NCCS,mutagenic call,"Species/Cell Type: Escherichia coli polA (W3119 vs P3478), Assay Type: Rec-assay, DNA effects (bacterial DNA repair), Assay Code: RE1T, Evaluation Type: Evaluation A (Pre-1980)",no conclusion
same,mutagenic call,[2],no conclusion
same,mutagenic call,[3],no conclusion
same,mutagenic call,"Species/Cell Type: Neurospora crassa, Assay Type: Reverse gene mutation, Assay Code: NER-, Evaluation Type: Evaluation A (Pre-1980)",inactive; negative
same,mutagenic call,[8],active; positive
same,mutagenic call,[6],no conclusion
Cc1ccc(N=Nc2c(O)ccc3ccccc23)c(C)c1,mutagenic call,"Species/Cell Type: Bacillus subtilis (H17 vs M45T), Assay Type: Rec-assay, spot test, DNA effects (bacterial DNA repair), Assay Code: REXT, Evaluation Type: Evaluation A (Pre-1980)",no conclusion
same,mutagenic call,[7],active; positive
COc1ccc2c3c1O[C@H]1[C@@H](O)C=C[C@H]4[C@@H](C2)N(C)CC[C@@]341,mutagenic call,[9],no conclusion
same,mutagenic call,"Species/Cell Type: Mouse, Sex: Male, Assay Type: Sperm morphology, Assay Code: SPI-, Evaluation Type: Evaluation A (Pre-1980)",inactive; negative
ONc1ncnc2nc[nH]c12,mutagenic call,"Species/Cell Type: Neurospora crassa, Assay Type: Forward gene mutation, Assay Code: NEF+, Evaluation Type: Evaluation A (Pre-1980)",active; positive
C=C1[C@@H](C)[C@H]2[C@H](Cc3ccccc3)NC(=O)[C@]23OC(=O)/C=C/[C@H](O)CCC[C@@H](C)C/C=C/[C@H]3[C@@H]1O,mutagenic call,"Species/Cell Type: Bacillus subtilis (H17 vs M45), Assay Type: Rec-assay, spot test, DNA effects (bacterial DNA repair), Assay Code: REW-, Evaluation Type: Evaluation A (Pre-1980)",inactive; negative
CC(=O)Nc1c(I)c(NC(C)=O)c(I)c(C(=O)O)c1I,mutagenic call,[2],no conclusion
same,mutagenic call,[3],no conclusion
O=NN1CCNC1=S,mutagenic call,[9],no conclusion
same,mutagenic call,[8],active; positive
same,mutagenic call,"Species/Cell Type: Rodents, Sex: Male, Assay Type: Dominant lethal test, Assay Code: DLT-, Evaluation Type: Evaluation A (Pre-1980)",inactive; negative
O=C(CCc1ccc([N+](=O)[O-])o1)NC1CCCCC1,mutagenic call,"Species/Cell Type: Neurospora crassa, Assay Type: Forward gene mutation, Assay Code: NEF-, Evaluation Type: Evaluation A (Pre-1980)",inactive; negative
c1ccc2c(c1)[nH]c1cnccc12,mutagenic call,"Species/Cell Type: Human lymphocytes, Assay Type: Sister-chromatid exchange (SCE) in vitro, Assay Code: SCL+D, Dose Response: With dose response, Evaluation Type: Evaluation B (Post-1980)",active; positive
same,mutagenic call,[2],no conclusion
same,mutagenic call,"Species/Cell Type: Human, Assay Type: Sister-chromatid exchange (SCE) in vitro, Assay Code: SC1+D, Dose Response: With dose response, Evaluation Type: Evaluation B (Post-1980)",active; positive
same,mutagenic call,[3],no conclusion
Cc1cc(Cl)ccc1N,call,[10],active; positive
CCOC(=O)N(C)N=O,mutagenic call,"Species/Cell Type: Arabidopsis species, Assay Type: Gene mutation, Assay Code: ARM+D, Dose Response: With dose response, Evaluation Type: Evaluation A (Pre-1980)",active; positive
same,mutagenic call,"Species/Cell Type: Bacillus subtilis (H17 vs M45T), Assay Type: Rec-assay, spot test, DNA effects (bacterial DNA repair), Assay Code: REX+, Evaluation Type: Evaluation A (Pre-1980)",active; positive
same,mutagenic call,[1],active; positive
same,mutagenic call,"Species/Cell Type: Drosophila melanogaster, Sex: Male, Assay Type: Heritable translocation test, chromosome aberrations, Assay Code: DHTT, Evaluation Type: Evaluation A (Pre-1980)",no conclusion
same,mutagenic call,"Species/Cell Type: Escherichia coli polA (W3119 vs P3478), Assay Type: Rec-assay, DNA effects (bacterial DNA repair), Assay Code: RE1+, Evaluation Type: Evaluation A (Pre-1980)",active; positive
same,mutagenic call,"Species/Cell Type: Hordeum vulgare (barley), Assay Type: Chromosome aberrations, Assay Code: HOC+D, Dose Response: With dose response, Evaluation Type: Evaluation A (Pre-1980)",active; positive
same,mutagenic call,"Species/Cell Type: Hordeum vulgare (barley), Assay Type: Gene mutation, Assay Code: HOM+, Evaluation Type: Evaluation A (Pre-1980)",active; positive
same,call,[10],active; positive
same,mutagenic call,"Species/Cell Type: Saccharomyces cerevisiae, Assay Type: Forward gene mutation, Assay Code: YEF+, Evaluation Type: Evaluation A (Pre-1980)",active; positive
same,mutagenic call,"Species/Cell Type: Saccharomyces cerevisiae, Assay Type: Mitotic recombination or gene conversion, Assay Code: YEC+, Evaluation Type: Evaluation A (Pre-1980)",active; positive
same,mutagenic call,"Species/Cell Type: Saccharomyces cerevisiae, Assay Type: Mitotic recombination or gene conversion, Assay Code: YEH+, Evaluation Type: Evaluation A (Pre-1980)",active; positive
same,mutagenic call,[11],active; positive
same,mutagenic call,"Species/Cell Type: Schizosaccharomyces pombe, Assay Type: Reverse gene mutation, Assay Code: YEZ+, Evaluation Type: Evaluation A (Pre-1980)",active; positive
ClC/C=C/CCl,mutagenic call,[1],active; positive
OCCN1CCN(CCCN2c3ccccc3Sc3ccc(C(F)(F)F)cc32)CC1,mutagenic call,[4],active; positive
CC(=O)OC(OC(C)=O)c1ccc([N+](=O)[O-])o1,mutagenic call,"Species/Cell Type: Escherichia coli WP2 UVRA, Assay Type: Tryptophan reverse gene mutation, Assay Code: WPU+, Evaluation Type: Evaluation A (Pre-1980)",active; positive
same,mutagenic call,"Species/Cell Type: Nonhuman, Assay Type: Sister-chromatid exchange (SCE) in vitro, Assay Code: SC2+, Evaluation Type: Evaluation B (Post-1980)",active; positive
same,mutagenic call,[11],active; positive
c1ccc2c(c1)-c1cccc3c1c-2cc1ccccc13,call,[10],active; positive
same,mutagenic call,"Species/Cell Type: Nonhuman, Assay Type: Sister-chromatid exchange (SCE) in vivo, Assay Code: SC3+, Evaluation Type: Evaluation B (Post-1980)",active; positive
same,mutagenic call,"Species/Cell Type: Nonhuman, Assay Type: Sister-chromatid exchange (SCE) in vivo, Assay Code: SC3T, Evaluation Type: Evaluation A (Pre-1980)",no conclusion
O[C@@H]1C=Cc2c(ccc3cc4c(ccc5ccccc54)cc23)[C@H]1O,call,"Species/Cell Type: Nonhuman, Assay Code: CCG+L, Evaluation Type: Evaluation A (Pre-1980)",active; positive
same,mutagenic call,[8],active; positive
same,mutagenic call,[7],active; positive
CCNc1nc(NC(C)C)nc(SC)n1,mutagenic call,[5],inactive; negative
Nc1nc(-c2ccc([N+](=O)[O-])s2)cs1,mutagenic call,[11],active; positive

# Source: PubChem BioAssay AID1259408 (Genetic Toxicology Data Bank (GENE-TOX), 2018)
